Assay [1] relates to TH-positive dopaminergic neurons in mesencephalic cultures from WT and D2R−/− mice. In words: Number of TH-positive neurons and neurite length in primary mesencephalic cultures. The format is cell-based, mouse. The text has this:
(§1) D2R−/− mice and wild-type (WT) mice were obtained by mating D2R−/− mice and heterozygous mice, purchased from Institut de Genetiqul et Biologie Moleculaire et celluaire (Strasbourg, France), and their genotypes were identified by Southern hybridization analyses (An J J et al., Mol Cell Neurosci. 2004, 25: 732-741). Insemination was confirmed by vaginal plug and considered to be embryonic day 0 (E0). Pregnant mothers were killed at E14 in accordance with Society for Neuroscience Guidelines. To prepare primary mesencephalic neuronal cultures, the mesencephalon dissected from 14 day gestation mouse embryo was incubated with 0.1% of trypsin in HBSS for 10 minutes at 37° C. and triturated with a constricted Pasteur pipette in high-glucose DMEM media supplemented with 10% FBS (Invitrogen, San Diego, Calif.), 1.4 mM L-glutamine, and 6.0 g/L glucose. The neurons were plated at 1.0×10^5 cells per 18×18 mm coverslip (Marienfeld, Lauda-Konigshofen, Germany) or 2.0×10^5 cells per six-well plates precoated with 50 μg/ml poly-D-lysine and 2 μg/ml laminin (Sigma, St. Louis, Mo.). The neurons were maintained at 37° C. in a humidified 5% CO2 atmosphere in Neurobasal media supplemented with B27 and GlutaMax-1.
To determine whether the absence of dopamine D2 receptor (D2R) might affect the number of dopaminergic neurons, dopaminergic neurons, which were isolated from mesencephalons of wild-type (WT) and D2R−/− embryonic mice, were incubated on slides with 1.0×10^5 cells and precoated with 50 μg/ml poly-D-lysine and 2 μg/ml laminin (Sigma, St. Louis, Mo.) at 37° C. for 5 days, followed by performing immunofluorescence staining. The immunofluorescence staining was performed such that primarily cultured dopaminergic neurons were fixed with 4% paraformaldehyde for 20 minutes at room temperature (RT) and blocked for 1 hour in PBS containing 5% normal horse serum and 0.2% Triton X-100. Then, the neurons were incubated with a rabbit polyclonal anti-tyrosine hydroxylase (TH) (1:1000; Pel-Freez, Rogers, Ark.) in PBS containing 1% normal horse serum and 0.2% Triton X-100 at 4° C. for over 16 hours, and followed by staining according to avidin-biotin immunohistochemical procedures (Vector Laboratories, Burlingame, Calif.). Using a microscope equipped with an metamorph imaging system (Universal Imaging Corporation, West Chester, Pa.) in 20 randomly selected fields per each slide, cell counts and morphometric analysis were made in randomly selected unbiased counting frames (>40 frames out of 81 grids were counted).
Thereafter, the treated cells were fixed and stained in the same manner as in EXAMPLE 2 for counting the number TH-positive cells and analyzing the neuritic shape (FIG. 6A).
Thereafter, the neurons were treated with 1 μM quinpirol.

Assay [2] deals with D2R-mediated Nurr1 activation. In words: NurRE-dependent luciferase reporter gene activation assay in HEK293T cells transfected with D2R, Nurr1 and NurRE-luc. It counts as cell-based. The method, then:
To investigate the effect of D2R on the number of TH-positive neurons and Nurr1 expression, Nur response element (NurRE)-dependent reporter gene activation assay was carried out to determine whether or not D2R activation might induce Nurr1 activation (Philips et al, Mol Cell Biol., 1997, 17:5946-5951; Maira et al, Mol Cell Biol., 1999, 19:7549-7557). HEK293T cells distributed from Korean cell line Bank were cultured in DMEM (Dulbeco's modified eagle's medium; Invitrogen, Carlsbad, Calif.) supplemented with 10% FBS (fetal bovine serum; Invitrogen, Carlsbad, Calif.) and transfected the same with dopamine receptors, Nurr1, and NurRE gene using a jetPEI transfection reagent (Qbiogene, Carlsbad, Calif.). In detail, 5˜7×10^5 cells confluent monolayers of HEK293 cells were transfected with 1.5 μg of pSV-D2R or pSV-D1R, 1.5 μg of pCMX-Nurr1, 1.5 μg of pXP1-luc containing POMC gene promoter and NurRE (pXP1-NurRE-luc), and 0.5 μg of pCH110. In case of the transfection with Ras dominant-negative mutant, cells were transfected with 1.0 μg of pMT-RasN17 or pSK-null vector, 1.0 μg of pSV-D2R, 1.0 μg of pCMX-Nurr1, 1.0 μg of pXP1-NurRE-luc, and 0.5 μg of pCH110. After 3 hours, the transfection mixture was replaced with fresh growth medium. Assays were performed 48 hours after transfection. Cells were preincubated overnight in serum-free growth medium before treatment with agonists. The cells were treated with various concentrations of dopamine or SKF38393, respectively, for 6 hours at 37° C. with or without preincubation of haloperidol (1 μM for 5 minutes), pertussis toxin (PTX) (100 ng/ml for 12 hours), H-89 (1 μM for 20 minutes), and PD98059 (10 μM for 30 minutes). After treatment, the cells were lysed and assayed for luciferase activity using the luciferase assay system (Promega, Madison, Wis.), and luminescence was measured using a 96-well luminometer (Microlumat; EG & Berthold, Bad Wilbad, Germany).
The data obtained were fitted to a sigmoid curve with a variable slope factor using nonlinear squares regression in GraphPad Prism software, which is shown in FIG. 5.

Assay [3] has as its system phosphorylated ERK (p-ERK) in mesencephalic neurons from WT and D2R−/− mice. In words: ERK phosphorylation in mesencephalic neurons (immunofluorescence and Western blot). The format is cell-based, mouse. The settings on record: Western blot.
Protocol: Then, cells were fixed in the same manner as in EXAMPLE 2, a rabbit polyclonal anti-TH (1:1000; Pel-Freez) and a mouse monoclonal anti-phosphorylated ERK (p-ERK) (E10; 1:200; Cell Signaling, Beverly, Mass.) were reacted at 4° C. for 12 hours. Thereafter, the resultant neurons were stained at RT for 1 hour with two fluorescent antibodies, that is, Alexa Fluor 568 goat anti-rabbit IgG and Alexa Fluor 488 goat anti-mouse IgG (1:200; Molecular Probes, Eugene, Oreg.). After staining, ERK-positive neurons among TH-positive neurons were examined.
To observe immunofluorescent images, a confocal microscope system (Nikon Eclipse fluorescence microscope, TE2000-U, Nikon, Kanagawa, Japan; Ultraview RS confocal scanner, Perkin elmer, Wellesley, Mass.) or a fluorescence microscope (Axiovert 2000 microscope with epifluorescence unit, Zeiss, Zena, Germany) was used. The Western blot analysis was carried out in the following conditions. […] The resultant mixture was homogenized with probe type sonicator on ice, and followed by centrifugation at 13,000×g for 10 minutes at 4° C. Protein (50 μg), as measured by Bradford protein assay, was subjected to electrophoresis on 10% SDS-PAGE. […]
Assay [4] relates to TH-positive neurons in primary mesencephalic cultures from WT and D2R−/− mice. In words: MPP+ treatment of primary mesencephalic dopaminergic neuronal cultures, TH-positive cell counting. The format is cell-based, mouse. Particulars: for number of surviving TH-positive neurons: 10 μM MPP+, 24 hours.
Source text: as §1
To determine whether the absence of dopamine D2 receptor (D2R) might affect the number of dopaminergic neurons, dopaminergic neurons, which were isolated from mesencephalons of wild-type (WT) and D2R−/− embryonic mice, were incubated on slides with 1.0×10^5 cells and precoated with 50 μg/ml poly-D-lysine and 2 μg/ml laminin (Sigma, St. Louis, Mo.) at 37° C. for 5 days, followed by performing immunofluorescence staining. […] Using a microscope equipped with an metamorph imaging system (Universal Imaging Corporation, West Chester, Pa.) in 20 randomly selected fields per each slide, cell counts and morphometric analysis were made in randomly selected unbiased counting frames (>40 frames out of 81 grids were counted). […]

For assay [5], the system named is dopamine D1 receptor (D1R)-mediated Nurr1 activation. In words: NurRE-dependent luciferase reporter gene activation assay in HEK293T cells transfected with D1R. It counts as cell-based. Here is the method:
To investigate the effect of D2R on the number of TH-positive neurons and Nurr1 expression, Nur response element (NurRE)-dependent reporter gene activation assay was carried out to determine whether or not D2R activation might induce Nurr1 activation (Philips et al, Mol Cell Biol., 1997, 17:5946-5951; Maira et al, Mol Cell Biol., 1999, 19:7549-7557). HEK293T cells distributed from Korean cell line Bank were cultured in DMEM (Dulbeco's modified eagle's medium; Invitrogen, Carlsbad, Calif.) supplemented with 10% FBS (fetal bovine serum; Invitrogen, Carlsbad, Calif.) and transfected the same with dopamine receptors, Nurr1, and NurRE gene using a jetPEI transfection reagent (Qbiogene, Carlsbad, Calif.). In detail, 5˜7×10^5 cells confluent monolayers of HEK293 cells were transfected with 1.5 μg of pSV-D2R or pSV-D1R, 1.5 μg of pCMX-Nurr1, 1.5 μg of pXP1-luc containing POMC gene promoter and NurRE (pXP1-NurRE-luc), and 0.5 μg of pCH110. […] After treatment, the cells were lysed and assayed for luciferase activity using the luciferase assay system (Promega, Madison, Wis.), and luminescence was measured using a 96-well luminometer (Microlumat; EG & Berthold, Bad Wilbad, Germany).

[6] abbreviates: PD98059 treatment versus control without PD98059.
Where [7] appears, read: D2R−/− mice, 1 μM haloperidol for 5 minutes then 1 μM quinpirole, versus control without haloperidol.
Setting [8] is: WT and D2R−/− mice treated with haloperidol.

Entries after “also recorded” stand apart in the source; their conditions may differ.

With `COc1cccc(-c2cc(=O)c3ccccc3o2)c1N` [PD98059], in assay [1] (setting [6]), the “average length of neurites” value is given as “reduced” and the “number of TH-positive neurons” value is recorded as “slightly reduced”. Besides, the “Nurr1 activation by dopamine in the presence of MEK inhibitor” value in assay [2] (PD98059 10 μM for 30 minutes) was “noticeably reduced”. Further, in assay [3] (50 μM PD98059 for 30 minutes plus quinpirole), the “phosphorylated ERK after quinpirole with MEK inhibitor” value was “neither WT nor D2R−/− neurons showed phosphorylated ERK”.
For the molecule `NCCc1ccc(O)c(O)c1` [dopamine], in assay [2] (HEK293T transfected with D2R, Nurr1 and NurRE-luc, dopamine at various concentrations, 6 hours), the “luciferase activation relative to control group” value was “about 180%”. Besides, the “change in luciferase activation” value in assay [2] (dopamine, in the absence of Nurr1 or D2R) was “no change in the activation”.
For the molecule `O=S(=O)(NCCNC/C=C/c1ccc(Br)cc1)c1cccc2cnccc12` [H-89], the “D2R-induced NurRE-dependent luciferase activation in the presence of PKA inhibitor” value in assay [2] (H-89 1 μM for 20 minutes) is “did not give rise to a significant change”.
As to `C[n+]1ccc(-c2ccccc2)cc1` [MPP^+, 1-Methyl-4-phenylpyridinium], the “loss of dopaminergic neurons” value in assay [4] (1 to 10 μM MPP+ for 24 hours, D2R−/− versus WT cultures) is given as “more significant loss of dopaminergic neurons in the D2R−/− mice than in WT mice”. The “number of surviving TH-positive neurons” value in assay [4] (D2R−/− mice cultures) was determined as 40%; in assay [4] (WT mice cultures), 54%.
Regarding `O=C(CCCN1CCC(O)(c2ccc(Cl)cc2)CC1)c1ccc(F)cc1` [haloperidol], in assay [1] (setting [7]), the neuritic extension entry is listed as “no changes” and the “number of TH-positive neurons” value is on record as “no changes”. Moreover, in assay [1] (setting [8]), the “average length of the neurites” value was “decreased or showed insignificant changes” and the “number of dopaminergic neurons” value was “decreased or showed insignificant changes”. Moreover, the “D2R-mediated Nurr1 activation by dopamine after antagonist” value in assay [2] (haloperidol 1 μM preincubation for 5 minutes) is recorded as “reduced; also recorded: inhibited or decreased”. In addition, in assay [3] (1 μM haloperidol for 5 minutes plus quinpirole), the “phosphorylated ERK after quinpirole with antagonist” value is “neither WT nor D2R−/− neurons showed phosphorylated ERK”.
`Oc1cc2c(c(Cl)c1O)CCNCC2c1ccccc1` (centres unmarked) [SKF81297]: in assay [5], the “Nurr1 activation by D1R-specific agonist” value was “no significant change”.

For the origin of these results see patent publication US20090017489A1, “Methods For Modulating The Development Of Dopamine Neuron By The Dopamine D2 Receptor And Compositions Thereof” (Korea University Industry And Academy Cooperation Foundation, priority 2006, published 2009).
